Measured values as given in patent publication US4052514A, “Trihalosubstituted biphenylyl propionic acids” (The Boots Company Limited, priority 1971, dated 1977).

Tested on: adjuvant arthritis
Experiment: rat adjuvant arthritis test (chronic; killed human tubercle bacilli, compounds given daily by mouth for 21 days)
Assay type: in vivo
Conditions: daily by mouth for 21 days, reference 2-(2-fluoro-4-biphenylyl)propionic acid = 1
Protocol: The best method of indicating long acting anti-inflammatory activity of the compounds is by means of a test in which compounds are administered chronically e.g. the rat adjuvant arthritis test. […] The adjuvant arthritis test conducted on the rat is, however a chronic test and is believed to give a good indication of the effectiveness of the compounds for the treatment of chronic conditions in humans. The adjuvant arthritis test is described by Newbould, B. B., in Br. J. Pharmac. Chemother., 1963, 21, 127. In the test arthritis is produced by injecting intradermally into the tail 0.1 ml. of a suspension of killed human tubercle bacilli (6 mg./ml.) in liquid paraffin BP. A polyarthritis develops over the next 3 weeks in untreated controls. The compounds under test (vehicle only for control animals) are given daily by mouth from the day the adjuvant is injected for 21 days. On day 21 the degree of arthritis is assessed on each hind foot. The degree of inhibition produced by a compound is estimated by comparison of the total arthritic scores with those found in the controls.
In the following Table are given the results in the adjuvant arthritis test for the four preferred compounds of the invention and 2-(2-fluoro-4-biphenylyl)propionic acid, the latter compound being used as a standard of reference in the adjuvant arthritis test.
As with the propionic acids of the invention the half-life of the compounds of the invention in the blood of the subject to which they are administered is a good indication of their duration of activity. The half-life may ve measured by giving oral doses of the compounds and determining levels in the plasma at various times thereafer, as previously described. As with the propionic acids of the invention one of the best methods of indicating long acting anti-inflammatory activity of the compounds is by means of a test in which compounds are administered chronically e.g. the rat adjuvant arthritis test.

Compound	ADJUVANT ARTHRITIS (activity; 2-(2-fluoro-4-biphenylyl)propionic acid used as standard of reference)
CC(C(=O)O)c1ccc(-c2ccc(F)cc2F)c(Cl)c1 (stereo not drawn) [2-(2-chloro-2',4'-difluoro-4-biphenylyl)propionic acid]	> 10
CC(C(=O)O)c1ccc(-c2ccc(F)cc2F)c(F)c1 (stereo not drawn) [2-(2,2',4'-trifluoro-4-biphenylyl)propionic acid]	> 10
CC(C(=O)O)c1ccc(-c2ccccc2)c(F)c1 (stereo not drawn) [2-(2-fluoro-4-biphenylyl)propionic acid, reference compound]	1
CC(C(=O)O)c1ccc(-c2ccc(Cl)cc2F)c(F)c1 (stereo not drawn) [2-(4'-chloro-2,2'-difluoro-4-biphenylyl)propionic acid]	> 3
CC(C(=O)O)c1ccc(-c2ccc(F)cc2Cl)c(F)c1 (stereo not drawn) [2-(2'-chloro-2,4'-difluoro-4-biphenylyl)propionic acid]	> 3

Same assay, conditions: standard of reference 2-fluoro-4-biphenylylacetic acid

Compound	times as active as 2-fluoro-4-biphenylylacetic acid in adjuvant arthritis test
O=C(O)Cc1ccc(-c2ccc(F)cc2F)c(F)c1 [2,2', 4'-trifluoro-4-biphenylacetic acid, 2,2',4'-trifluoro-4-biphenylylacetic acid]	more than 30 times
